Calls of active or inactive are those of the source. The rule behind the calls is not given here.
Key:
Pseudomonas aeruginosa [1] = experiment: Potentiation of meropenem-induced antibacterial activity against VIM2 carbapenemase producing multidrug-resistant Pseudomonas aeruginosa 27 clinical isolate assessed as MIC of meropenem at 1:8 meropenem:compound ratio by broth microtiter dilution method; format: functional
Enterobacter cloacae = experiment: Potentiation of meropenem-induced antibacterial activity against VIM4 carbapenemase producing multidrug-resistant Enterobacter cloacae 102 clinical isolate assessed as MIC of meropenem at 1:8 meropenem:compound ratio by broth microtiter dilution method; format: functional
Escherichia coli [2] = experiment: Potentiation of meropenem-induced antibacterial activity against VIM4 carbapenemase producing multidrug-resistant Escherichia coli 98 clinical isolate assessed as MIC of meropenem at 1:8 meropenem:compound ratio by broth microtiter dilution method; format: functional
Klebsiella pneumoniae [3] = experiment: Potentiation of meropenem-induced antibacterial activity against VIM4 carbapenemase producing multidrug-resistant Klebsiella pneumoniae 120 clinical isolate assessed as MIC of meropenem at 1:8 meropenem:compound ratio by broth microtiter dilution method; format: functional
Klebsiella pneumoniae [4] = experiment: Potentiation of meropenem-induced antibacterial activity against VIM4 carbapenemase producing multidrug-resistant Klebsiella pneumoniae 128 clinical isolate assessed as MIC of meropenem at 1:8 meropenem:compound ratio by broth microtiter dilution method; format: functional
Providencia stuartii [5] = experiment: Potentiation of meropenem-induced antibacterial activity against VIM1 carbapenemase producing multidrug-resistant Providencia stuartii 67 clinical isolate at 1:8 meropenem:compound ratio by checkerboard method; format: functional
Pseudomonas aeruginosa [6] = experiment: Potentiation of meropenem-induced antibacterial activity against VIM2 carbapenemase producing multidrug-resistant Pseudomonas aeruginosa 47 clinical isolate assessed as MIC of meropenem at 1:8 meropenem:compound ratio by broth microtiter dilution method; format: functional
Pseudomonas aeruginosa [7] = experiment: Potentiation of meropenem-induced antibacterial activity against VIM2 carbapenemase producing multidrug-resistant Pseudomonas aeruginosa GR57 clinical isolate assessed as MIC of meropenem at 1:8 meropenem:compound ratio by broth microtiter dilution method; format: functional
Pseudomonas aeruginosa [8] = experiment: Potentiation of meropenem-induced antibacterial activity against VIM2 carbapenemase producing multidrug-resistant Pseudomonas aeruginosa 9 clinical isolate assessed as MIC of meropenem at 1:8 meropenem:compound ratio by broth microtiter dilution method; format: functional
Pseudomonas aeruginosa [9] = experiment: Potentiation of meropenem-induced antibacterial activity against VIM2 carbapenemase producing multidrug-resistant Pseudomonas aeruginosa 6 clinical isolate assessed as MIC of meropenem at 1:8 meropenem:compound ratio by broth microtiter dilution method; format: functional
Pseudomonas aeruginosa [10] = experiment: Potentiation of meropenem-induced antibacterial activity against VIM2 carbapenemase producing multidrug-resistant Pseudomonas aeruginosa 13 clinical isolate assessed as MIC of meropenem at 1:8 meropenem:compound ratio by broth microtiter dilution method; format: functional
Klebsiella pneumoniae [11] = experiment: Potentiation of meropenem-induced antibacterial activity against VIM4 carbapenemase producing multidrug-resistant Klebsiella pneumoniae 120 clinical isolate infected in Galleria mellonella larvae assessed as survival rate at 4.8 mg/kg measured at 96 hrs; format: functional; details: Klebsiella pneumoniae, 120, 96 h
Pseudomonas aeruginosa [12] = experiment: Potentiation of meropenem-induced antibacterial activity against VIM2 carbapenemase producing multidrug-resistant Pseudomonas aeruginosa GR62 clinical isolate at 1:8 meropenem:compound ratio by checkerboard method; format: functional
Pseudomonas aeruginosa [13] = experiment: Potentiation of meropenem-induced antibacterial activity against VIM2 carbapenemase producing multidrug-resistant Pseudomonas aeruginosa GR62 clinical isolate assessed as MIC of meropenem at 1:8 meropenem:compound ratio by broth microtiter dilution method; format: functional
Klebsiella pneumoniae [14] = experiment: Antibacterial activity against VIM4 carbapenemase producing multidrug-resistant Klebsiella pneumoniae 120 clinical isolate infected in Galleria mellonella larvae assessed as survival rate at 4.8 mg/kg measured at 96 hrs; format: functional, organism-based
Pseudomonas aeruginosa [15] = experiment: Antibacterial activity against VIM2 carbapenemase producing multidrug-resistant Pseudomonas aeruginosa GR57 clinical isolate infected in Galleria mellonella larvae assessed as survival rate at 4.8 mg/kg measured at 96 hrs; format: functional, organism-based
Providencia stuartii [16] = experiment: Antibacterial activity against VIM1 carbapenemase producing multidrug-resistant Providencia stuartii 67 clinical isolate up to 512 mg/L by broth microtiter dilution method; format: functional, organism-based
Pseudomonas aeruginosa [17] = experiment: Antibacterial activity against VIM2 carbapenemase producing multidrug-resistant Pseudomonas aeruginosa 30 clinical isolate up to 512 mg/L by broth microtiter dilution method; format: functional, organism-based
Pseudomonas aeruginosa [18] = experiment: Antibacterial activity against VIM2 carbapenemase producing multidrug-resistant Pseudomonas aeruginosa 47 clinical isolate up to 512 mg/L by broth microtiter dilution method; format: functional, organism-based
Pseudomonas aeruginosa [19] = experiment: Antibacterial activity against VIM2 carbapenemase producing multidrug-resistant Pseudomonas aeruginosa 6 clinical isolate up to 512 mg/L by broth microtiter dilution method; format: functional, organism-based
Pseudomonas aeruginosa [20] = experiment: Antibacterial activity against VIM2 carbapenemase producing multidrug-resistant Pseudomonas aeruginosa 12 clinical isolate up to 512 mg/L by broth microtiter dilution method; format: functional, organism-based
Pseudomonas aeruginosa [21] = experiment: Antibacterial activity against VIM2 carbapenemase producing multidrug-resistant Pseudomonas aeruginosa 14 clinical isolate up to 512 mg/L by broth microtiter dilution method; format: functional, organism-based
Pseudomonas aeruginosa [22] = experiment: Antibacterial activity against VIM2 carbapenemase producing multidrug-resistant Pseudomonas aeruginosa 15 clinical isolate up to 512 mg/L by broth microtiter dilution method; format: functional, organism-based
Pseudomonas aeruginosa [23] = experiment: Antibacterial activity against VIM2 carbapenemase producing multidrug-resistant Pseudomonas aeruginosa 16 clinical isolate up to 512 mg/L by broth microtiter dilution method; format: functional, organism-based
Escherichia coli [24] = experiment: Antibacterial activity against VIM4 carbapenemase producing multidrug-resistant Escherichia coli 98 clinical isolate up to 512 mg/L by broth microtiter dilution method; format: functional, organism-based
Klebsiella oxytoca = experiment: Antibacterial activity against VIM4 carbapenemase producing multidrug-resistant Klebsiella oxytoca 95 clinical isolate up to 512 mg/L by broth microtiter dilution method; format: functional, organism-based
Klebsiella pneumoniae [25] = experiment: Antibacterial activity against VIM4 carbapenemase producing multidrug-resistant Klebsiella pneumoniae 128 clinical isolate up to 512 mg/L by broth microtiter dilution method; format: functional, organism-based
Klebsiella pneumoniae [26] = experiment: Antibacterial activity against VIM4 carbapenemase producing multidrug-resistant Klebsiella pneumoniae 196 clinical isolate up to 512 mg/L by broth microtiter dilution method; format: functional, organism-based
Pseudomonas aeruginosa [27] = experiment: Antibacterial activity against VIM2 carbapenemase producing multidrug-resistant Pseudomonas aeruginosa GR62 clinical isolate up to 512 mg/L by broth microtiter dilution method; format: functional, organism-based
Pseudomonas aeruginosa [28] = experiment: Potentiation of meropenem-induced antibacterial activity against VIM2 carbapenemase producing multidrug-resistant Pseudomonas aeruginosa 47 clinical isolate at 1:8 meropenem:compound ratio by checkerboard method; format: functional
Pseudomonas aeruginosa [29] = experiment: Potentiation of meropenem-induced antibacterial activity against VIM2 carbapenemase producing multidrug-resistant Pseudomonas aeruginosa GR58 clinical isolate at 1:8 meropenem:compound ratio by checkerboard method; format: functional
Pseudomonas aeruginosa [30] = experiment: Potentiation of meropenem-induced antibacterial activity against VIM2 carbapenemase producing multidrug-resistant Pseudomonas aeruginosa 8 clinical isolate at 1:8 meropenem:compound ratio by checkerboard method; format: functional
Pseudomonas aeruginosa [31] = experiment: Potentiation of meropenem-induced antibacterial activity against VIM2 carbapenemase producing multidrug-resistant Pseudomonas aeruginosa 6 clinical isolate at 1:8 meropenem:compound ratio by checkerboard method; format: functional
Pseudomonas aeruginosa [32] = experiment: Potentiation of meropenem-induced antibacterial activity against VIM2 carbapenemase producing multidrug-resistant Pseudomonas aeruginosa 13 clinical isolate at 1:8 meropenem:compound ratio by checkerboard method; format: functional
Pseudomonas aeruginosa [33] = experiment: Potentiation of meropenem-induced antibacterial activity against VIM2 carbapenemase producing multidrug-resistant Pseudomonas aeruginosa 27 clinical isolate at 1:8 meropenem:compound ratio by checkerboard method; format: functional
Escherichia coli [34] = experiment: Potentiation of meropenem-induced antibacterial activity against VIM4 carbapenemase producing multidrug-resistant Escherichia coli 98 clinical isolate at 1:8 meropenem:compound ratio by checkerboard method; format: functional

## O=C(O)/C(S)=C/c1c(Cl)ccc(Cl)c1Cl
Pseudomonas aeruginosa [1]
  MIC: 16 µg/mL
Enterobacter cloacae
  MIC: 4 µg/mL
Escherichia coli [2]
  MIC: 2 µg/mL
Klebsiella pneumoniae [3]
  MIC: 2 µg/mL
Klebsiella pneumoniae [4]
  MIC: 1 µg/mL
Providencia stuartii [5]
  fractional inhibitory concentration index (FICI): 0.14
Pseudomonas aeruginosa [6]
  MIC: 1 µg/mL
Pseudomonas aeruginosa [7]
  MIC: 4 µg/mL
Pseudomonas aeruginosa [8]
  MIC: 16 µg/mL
Pseudomonas aeruginosa [9]
  MIC: 16 µg/mL
Pseudomonas aeruginosa [10]
  MIC: 16 µg/mL
Klebsiella pneumoniae [11]
  survival at 4.8 mg/kg: 98%
Pseudomonas aeruginosa [12]
  fractional inhibitory concentration index (FICI): 0.38
Pseudomonas aeruginosa [13]
  MIC: 8 µg/mL
Klebsiella pneumoniae [14]
  Activity: Active
Pseudomonas aeruginosa [15]
  Activity: Active
Providencia stuartii [16]
  Activity: inactive
Pseudomonas aeruginosa [17]
  Activity: inactive
Pseudomonas aeruginosa [18]
  Activity: inactive
Pseudomonas aeruginosa [19]
  Activity: inactive
Pseudomonas aeruginosa [20]
  Activity: inactive
Pseudomonas aeruginosa [21]
  Activity: inactive
Pseudomonas aeruginosa [22]
  Activity: inactive
Pseudomonas aeruginosa [23]
  Activity: inactive
Escherichia coli [24]
  Activity: inactive
Klebsiella oxytoca
  Activity: inactive
Klebsiella pneumoniae [25]
  Activity: inactive
Klebsiella pneumoniae [26]
  Activity: inactive
Pseudomonas aeruginosa [27]
  Activity: inactive
Pseudomonas aeruginosa [28]
  fractional inhibitory concentration index (FICI): 0.05
Pseudomonas aeruginosa [29]
  fractional inhibitory concentration index (FICI): 0.38
Pseudomonas aeruginosa [30]
  fractional inhibitory concentration index (FICI): 0.38
Pseudomonas aeruginosa [31]
  fractional inhibitory concentration index (FICI): 0.38
Pseudomonas aeruginosa [32]
  fractional inhibitory concentration index (FICI): 0.75
Pseudomonas aeruginosa [33]
  fractional inhibitory concentration index (FICI): 0.5
Escherichia coli [34]
  fractional inhibitory concentration index (FICI): 0.16
